The values that follow are results of earlier work, collected in US7351710B2, “Preparation of amorphous form of indiplon” (Mai De Ltd., priority 2005, dated 2008).

For orientation: solubility means how much of the substance goes into solution per volume.

Take `CC(=O)N(C)c1cccc(-c2ccnc3c(C(=O)c4cccs4)cnn23)c1` [crystalline indiplon, N-Methyl-N-[3-[3-[2-thienylcarbonyl]pyrazolo[1,5-a]pyrimidin-7-yl]phenyl]acetamide]: the solubility (in water, crystalline form) is 20 to 30 µg/mL.

Take `CC(=O)N(C)c1cccc(-c2ccnc3c(C(=O)c4cccs4)cnn23)c1` [Indiplon, N-Methyl-N-[3-[3-[2-thienylcarbonyl]pyrazolo[1,5-a]pyrimidin-7-yl]phenyl]acetamide]: for the setting “water”, the “solubility in water (in words)” value is reported as “practically insoluble”.
